These are literature values, as cited in patent US10588912B2, “Methods of reducing mammographic breast density and/or breast cancer risk” (Havah Therapeutics Pty Ltd., priority 2014, dated 2020).

The conditions of the data set: oral absorption.

In the case of `C[C@]12CC[C@H]3[C@@H](CCC4=CC(=O)CC[C@@]43C)[C@@H]1CC[C@@H]2O` [testosterone], the “fraction broken down in the intestines by aromatase and other metabolic pathways” value was “approximately 85%”.
